Laboratory results reported in US11000033B2, “Ketone or oxime compound, and herbicide” (NISSAN CHEMICAL CORPORATION, priority 2014, dated 2021).

Legend:
Format in all cases: in vivo
Avena fatua [1] = assay: Test Example 5: herbicidal effect by foliage application, plastic box (symbol I); conditions: 320 g/ha, 3 weeks after application
Summary of the method: (§1)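 Greenhouse foliar test: seedlings at 14 days, grown 25° C. to 30° C. in sterilized diluvial soil; compound applied as an aqueous dilution of an emulsion; response read 3 weeks after spraying.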

Setaria viridis = assay: Test Example 5: herbicidal effect by foliage application, plastic box (symbol G); conditions: 320 g/ha, 3 weeks after application
Summary of the method: as §1

Avena fatua [2] = assay: Test Example 4: herbicidal effect by soil treatment (symbol I); conditions: application herbicide amount 320 g/ha
Summary of the method: (§2)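 Seeds were sown in sterilized diluvial soil, covered with about 1.5 cm of soil, and the soil surface was sprayed with a water-diluted emulsion of the compound at a predetermined rate. Plants grew in a greenhouse at 25° C. to 30° C.; effects were scored visually 3 weeks after application.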

Scirpus juncoides [3] = assay: Test Example 1: herbicidal activity, application before weed generation in submerged conditions (symbol B); conditions: application herbicide amount 320 g/ha
Summary of the method: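 Weed control was rated three weeks after treatment on a 0–5 scale, from 5% or lower up to 90% or more. Pre-emergence water-surface application of diluted emulsion at a predetermined rate was made on the day of sowing, in flooded (4 cm water) pots containing rice seedlings, kept at 25–30 °C under glass.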

Galium spurium = assay: Test Example 5: herbicidal effect by foliage application, plastic box (symbol Q); conditions: 320 g/ha, 3 weeks after application
Summary of the method: as §1

soybean = assay: Test Example 5: effect on crop by foliage application, plastic box (symbol d); conditions: 320 g/ha, 3 weeks after application
Summary of the method: (§3)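 Greenhouse culture at 25° C. to 30° C. followed spot-like sowing into sterilized diluvial soil, with seed covered by roughly 1.5 cm of soil.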

beet [4] = assay: Test Example 4: effect on crop by soil treatment (symbol f); conditions: application herbicide amount 320 g/ha
Summary of the method: (§4)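 Sterilized diluvial soil, spot sowing, ~1.5 cm soil cover; greenhouse 25–30° C.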

Chenopodium album = assay: Test Example 5: herbicidal effect by foliage application, plastic box (symbol O); conditions: 320 g/ha, 3 weeks after application
Summary of the method: as §1

Apera spica-venti [5] = assay: Test Example 5: herbicidal effect by foliage application, plastic box (symbol L); conditions: 320 g/ha, 3 weeks after application
Summary of the method: as §1

Amaranthus retroflexus = assay: Test Example 4: herbicidal effect by soil treatment (symbol N); conditions: application herbicide amount 320 g/ha
Summary of the method: as §2

beet [6] = assay: Test Example 5: effect on crop by foliage application, plastic box (symbol f); conditions: 320 g/ha, 3 weeks after application
Summary of the method: as §3

Veronica persica = assay: Test Example 5: herbicidal effect by foliage application, plastic box (symbol R); conditions: 320 g/ha, 3 weeks after application
Summary of the method: as §1

Apera spica-venti [7] = assay: Test Example 4: herbicidal effect by soil treatment (symbol L); conditions: application herbicide amount 320 g/ha
Summary of the method: as §2

wheat = assay: Test Example 4: effect on crop by soil treatment (symbol e); conditions: application herbicide amount 320 g/ha
Summary of the method: as §4

[8] = test system: Echinochloa crus-galli var. crus-galli; assay: Test Example 4: herbicidal effect by soil treatment (symbol H); conditions: application herbicide amount 320 g/ha
Summary of the method: as §2

Scirpus juncoides [9] = assay: Test Example 2: herbicidal activity, application during weed generation in submerged conditions (symbol B); conditions: Table 23; application herbicide amount 320 g/ha; grade 0-5 by criteria of Test Example 1
Summary of the method: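 Read-out: herbicidal effect on each species rated on a visual scale 3 weeks after treatment. Plants were raised together from seed in flooded alluvial soil (4 cm water) at 25° C. to 30° C. and treated at one to two leaves by water-surface application of diluted emulsion.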

rapeseed = assay: Test Example 4: effect on crop by soil treatment (symbol g); conditions: application herbicide amount 320 g/ha
Summary of the method: as §4

SMILES	I: Avena fatua, herbicidal effect grade (Avena fatua [1])	G: Setaria viridis, herbicidal effect grade (Setaria viridis)	Herbicidal effect grade, B: Scirpus juncoides (Scirpus juncoides [3])	d: soybean, effect on crop grade (soybean)	O: Chenopodium album, herbicidal effect grade (Chenopodium album)	L: Apera spica-venti, herbicidal effect grade (Apera spica-venti [5])	f: beet, effect on crop grade (beet [6])	R: Veronica persica, herbicidal effect grade (Veronica persica)	Herbicidal effect grade, B: Scirpus juncoides (Scirpus juncoides [9])	I: Avena fatua, herbicidal effect (criteria of Test Example 1) (Avena fatua [1])	Herbicidal effect grade, I: Avena fatua (Avena fatua [2])	Q: Galium spurium, herbicidal effect (criteria of Test Example 1) (Galium spurium)	Effect on crop grade, f: beet (beet [4])	O: Chenopodium album, herbicidal effect (criteria of Test Example 1) (Chenopodium album)	L: Apera spica-venti, herbicidal effect (criteria of Test Example 1) (Apera spica-venti [5])	Herbicidal effect grade, N: Amaranthus retroflexus (Amaranthus retroflexus)	f: beet, effect on crop (criteria of Test Example 1) (beet [6])	Effect on crop grade, g: rapeseed (rapeseed)	Effect on crop grade, e: wheat (wheat)	Herbicidal effect grade, H: Echinochloa crus-galli var. crus-galli [8]	also measured
CC(CC1CC(O)=C(c2c(C)cc(C)cc2C)C1=O)=NOCc1ccccn1 (stereo not drawn) [1-022]	5 (Herbicidal ratio of 90% or more (almost completely withered))	5 (Herbicidal ratio of 90% or more (almost completely withered))	5 (Herbicidal ratio of 90% or more (almost completely withered))	3 (Herbicidal ratio of 40% or higher and lower than 70%)	3 (Herbicidal ratio of 40% or higher and lower than 70%)	5 (Herbicidal ratio of 90% or more (almost completely withered))	0 (Herbicidal ratio of 5% or lower (almost no effect))	3 (Herbicidal ratio of 40% or higher and lower than 70%)	5 (Herbicidal ratio of 90% or more (almost completely withered))	–	–	–	–	–	–	–	–	–	–	–	I (Avena fatua) herbicidal effect grade (Avena fatua [2]): 4 (Herbicidal ratio of 70% or higher and lower than 90%); Q: Galium spurium, herbicidal effect grade (Galium spurium): 4 (Herbicidal ratio of 70% or higher and lower than 90%); f (beet) effect on crop grade (beet [4]): 3 (Herbicidal ratio of 40% or higher and lower than 70%); N (Amaranthus retroflexus) herbicidal effect grade (Amaranthus retroflexus): 0 (Herbicidal ratio of 5% or lower (almost no effect)); L (Apera spica-venti) herbicidal effect grade (Apera spica-venti [7]): 5 (Herbicidal ratio of 90% or more (almost completely withered)); e (wheat) effect on crop grade (wheat): 4 (Herbicidal ratio of 70% or higher and lower than 90%); H (Echinochloa crus-galli var. crus-galli) herbicidal effect grade [8]: 5 (Herbicidal ratio of 90% or more (almost completely withered))
CON=C(C)CC1CC(OC(=O)COc2ccccc2)=C(c2c(C)cc(-c3ccc(Cl)cc3Cl)cc2C)C1=O (stereo not drawn) [6-092]	–	–	0 (Herbicidal ratio of 5% or lower (almost no effect))	–	–	–	–	–	0 (Herbicidal ratio of 5% or lower (almost no effect))	5 (Herbicidal ratio of 90% or more (almost completely withered))	3 (Herbicidal ratio of 40% or higher and lower than 70%)	4 (Herbicidal ratio of 70% or higher and lower than 90%)	0 (Herbicidal ratio of 5% or lower (almost no effect))	5 (Herbicidal ratio of 90% or more (almost completely withered))	3 (Herbicidal ratio of 40% or higher and lower than 70%)	0 (Herbicidal ratio of 5% or lower (almost no effect))	0 (Herbicidal ratio of 5% or lower (almost no effect))	0 (Herbicidal ratio of 5% or lower (almost no effect))	0 (Herbicidal ratio of 5% or lower (almost no effect))	3 (Herbicidal ratio of 40% or higher and lower than 70%)	G: Setaria viridis, herbicidal effect (criteria of Test Example 1) (Setaria viridis): 5 (Herbicidal ratio of 90% or more (almost completely withered)); d: soybean, effect on crop (criteria of Test Example 1) (soybean): 1 (Herbicidal ratio of 5% or higher and lower than 20%); R: Veronica persica, herbicidal effect (criteria of Test Example 1) (Veronica persica): 4 (Herbicidal ratio of 70% or higher and lower than 90%)
CON=C(C)CC1CC(O)=C(c2c(F)cc(Br)cc2OC)C1=O (stereo not drawn) [6-096]	–	–	0 (Herbicidal ratio of 5% or lower (almost no effect))	–	–	–	–	–	0 (Herbicidal ratio of 5% or lower (almost no effect))	5 (Herbicidal ratio of 90% or more (almost completely withered))	3 (Herbicidal ratio of 40% or higher and lower than 70%)	0 (Herbicidal ratio of 5% or lower (almost no effect))	0 (Herbicidal ratio of 5% or lower (almost no effect))	1 (Herbicidal ratio of 5% or higher and lower than 20%)	3 (Herbicidal ratio of 40% or higher and lower than 70%)	0 (Herbicidal ratio of 5% or lower (almost no effect))	0 (Herbicidal ratio of 5% or lower (almost no effect))	0 (Herbicidal ratio of 5% or lower (almost no effect))	0 (Herbicidal ratio of 5% or lower (almost no effect))	4 (Herbicidal ratio of 70% or higher and lower than 90%)	R: Veronica persica, herbicidal effect (criteria of Test Example 1) (Veronica persica): 3 (Herbicidal ratio of 40% or higher and lower than 70%)
CC(=O)CC1CC(O)=C(c2c(C)cc(-c3ccccc3)cc2C)C1=O (stereo not drawn) [7-004]	–	–	3 (Herbicidal ratio of 40% or higher and lower than 70%)	–	–	–	–	–	0 (Herbicidal ratio of 5% or lower (almost no effect))	2 (Herbicidal ratio of 20% or higher and lower than 40%)	0 (Herbicidal ratio of 5% or lower (almost no effect))	0 (Herbicidal ratio of 5% or lower (almost no effect))	0 (Herbicidal ratio of 5% or lower (almost no effect))	2 (Herbicidal ratio of 20% or higher and lower than 40%)	5 (Herbicidal ratio of 90% or more (almost completely withered))	2 (Herbicidal ratio of 20% or higher and lower than 40%)	0 (Herbicidal ratio of 5% or lower (almost no effect))	3 (Herbicidal ratio of 40% or higher and lower than 70%)	0 (Herbicidal ratio of 5% or lower (almost no effect))	5 (Herbicidal ratio of 90% or more (almost completely withered))	G: Setaria viridis, herbicidal effect (criteria of Test Example 1) (Setaria viridis): 4 (Herbicidal ratio of 70% or higher and lower than 90%); d: soybean, effect on crop (criteria of Test Example 1) (soybean): 4 (Herbicidal ratio of 70% or higher and lower than 90%); Herbicidal effect grade, L: Apera spica-venti (Apera spica-venti [7]): 5 (Herbicidal ratio of 90% or more (almost completely withered))
CON=C(C)C(=O)C1CC(O)=C(c2c(C)cc(C)cc2C)C1=O (stereo not drawn) [8-002]	3 (Herbicidal ratio of 40% or higher and lower than 70%)	0 (Herbicidal ratio of 5% or lower (almost no effect))	0 (Herbicidal ratio of 5% or lower (almost no effect))	0 (Herbicidal ratio of 5% or lower (almost no effect))	0 (Herbicidal ratio of 5% or lower (almost no effect))	3 (Herbicidal ratio of 40% or higher and lower than 70%)	0 (Herbicidal ratio of 5% or lower (almost no effect))	0 (Herbicidal ratio of 5% or lower (almost no effect))	0 (Herbicidal ratio of 5% or lower (almost no effect))	–	0 (Herbicidal ratio of 5% or lower (almost no effect))	–	0 (Herbicidal ratio of 5% or lower (almost no effect))	–	–	0 (Herbicidal ratio of 5% or lower (almost no effect))	–	0 (Herbicidal ratio of 5% or lower (almost no effect))	0 (Herbicidal ratio of 5% or lower (almost no effect))	2 (Herbicidal ratio of 20% or higher and lower than 40%)	Herbicidal effect grade, L: Apera spica-venti (Apera spica-venti [7]): 0 (Herbicidal ratio of 5% or lower (almost no effect))
